Source: ChEMBL document CHEMBL1201862, “PubChem BioAssay data set” (2004)
The source made the active and inactive calls.

Tests used:
[1] = target: Voltage-dependent T-type calcium channel subunit alpha-1H (Homo sapiens, UniProt O95180); type: functional;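 also: channel activity triggered by adding a high calcium stimulation buffer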
[2] = target: T1, High affinity choline transporter 1 (Homo sapiens, UniProt Q9GZV3); assay: CHT activators, dose response, cell-based, 10-point CRC, membrane potential dye (AID 602376); type: functional
T1 sequence (Q9GZV3 whole entry): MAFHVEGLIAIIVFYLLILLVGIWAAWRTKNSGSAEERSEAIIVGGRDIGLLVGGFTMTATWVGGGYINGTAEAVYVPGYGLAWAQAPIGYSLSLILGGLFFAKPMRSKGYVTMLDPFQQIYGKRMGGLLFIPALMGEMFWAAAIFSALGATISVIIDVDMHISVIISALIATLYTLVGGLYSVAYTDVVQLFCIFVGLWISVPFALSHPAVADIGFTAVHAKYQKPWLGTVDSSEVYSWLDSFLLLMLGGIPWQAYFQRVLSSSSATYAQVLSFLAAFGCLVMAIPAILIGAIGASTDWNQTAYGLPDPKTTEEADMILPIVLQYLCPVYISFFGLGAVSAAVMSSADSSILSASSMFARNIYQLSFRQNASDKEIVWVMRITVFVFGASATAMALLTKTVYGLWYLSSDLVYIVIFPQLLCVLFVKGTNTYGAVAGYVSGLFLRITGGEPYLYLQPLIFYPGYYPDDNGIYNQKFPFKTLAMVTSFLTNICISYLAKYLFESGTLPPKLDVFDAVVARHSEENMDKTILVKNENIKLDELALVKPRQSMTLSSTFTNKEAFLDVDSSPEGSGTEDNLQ

[3] = microbe, parasite or virus in culture; type: functional; details: Mycobacterium tuberculosis
[4] = Luminescence Cell-Based Dose Retest to Confirm Inhibitors of Cancer Stem Cells. [Related pubchem assays (depositor defined):AID2717, AID2721]; type: functional; details: Homo sapiens
[5] = target: T2, Short transient receptor potential channel 4 (Mus musculus, UniProt Q9QUQ5); assay: mouse TRPC4 channel inhibitors, dose response, cell-based, HEK293 TRPC4/mu-opioid, Fluo-4 calcium (AID 434942); type: functional;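 also: potency of inhibitors blocking the TRPC4 calcium response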
T2 sequence (Q9QUQ5 whole entry): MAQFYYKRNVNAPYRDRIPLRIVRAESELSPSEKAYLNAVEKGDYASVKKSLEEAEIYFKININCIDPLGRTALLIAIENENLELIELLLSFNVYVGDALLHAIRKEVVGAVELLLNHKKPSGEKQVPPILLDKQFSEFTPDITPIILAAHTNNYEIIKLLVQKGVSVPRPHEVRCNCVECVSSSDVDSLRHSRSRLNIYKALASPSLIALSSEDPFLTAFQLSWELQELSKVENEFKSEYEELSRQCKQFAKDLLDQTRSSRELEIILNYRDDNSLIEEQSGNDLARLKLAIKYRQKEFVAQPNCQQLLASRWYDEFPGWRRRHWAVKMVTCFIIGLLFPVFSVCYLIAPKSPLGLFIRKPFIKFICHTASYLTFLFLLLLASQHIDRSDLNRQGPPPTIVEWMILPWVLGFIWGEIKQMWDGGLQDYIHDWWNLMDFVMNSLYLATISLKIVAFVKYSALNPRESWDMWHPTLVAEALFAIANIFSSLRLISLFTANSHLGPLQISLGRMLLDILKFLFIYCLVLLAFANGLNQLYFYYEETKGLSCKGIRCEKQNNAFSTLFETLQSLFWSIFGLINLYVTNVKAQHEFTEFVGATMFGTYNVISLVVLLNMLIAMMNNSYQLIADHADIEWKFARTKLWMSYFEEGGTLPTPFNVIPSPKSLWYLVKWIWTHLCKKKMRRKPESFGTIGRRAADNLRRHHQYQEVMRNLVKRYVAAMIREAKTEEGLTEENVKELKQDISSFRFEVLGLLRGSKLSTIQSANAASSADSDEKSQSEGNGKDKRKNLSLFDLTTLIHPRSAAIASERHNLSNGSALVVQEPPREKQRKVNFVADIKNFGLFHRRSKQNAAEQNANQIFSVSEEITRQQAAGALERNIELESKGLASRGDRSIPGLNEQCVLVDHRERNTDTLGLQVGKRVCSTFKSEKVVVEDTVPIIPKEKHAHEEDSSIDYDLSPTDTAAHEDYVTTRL

[6] = A Cell Based Secondary Assay to Explore Cytotoxicity in THP-1 Cells of Compounds that Modulate Mycobacterium tuberculosis in Media Containing Glycerol versus Media without Glycerol (2).; type: functional
[7] = Vero cell cytotoxicity, cytotoxicity control for M. tuberculosis inhibitor project, purified and synthesized samples, set 3 (AID 504684); type: functional
[8] = A Cell Based Secondary Assay to Explore Cytotoxicity in HepG2 Cells of Compounds that Modulate Mycobacterium tuberculosis in Media Containing Glycerol versus Media without Glycerol (2).; type: functional
[9] = target: DNA topoisomerase (Yersinia pestis, UniProt A0A2S9PM60); assay: Y. pestis Topo-I inhibitors, cleavage product readout, dose response, biochemical, cherry-pick (AID 588525)
Sequence of DNA topoisomerase (A0A2S9PM60 whole entry): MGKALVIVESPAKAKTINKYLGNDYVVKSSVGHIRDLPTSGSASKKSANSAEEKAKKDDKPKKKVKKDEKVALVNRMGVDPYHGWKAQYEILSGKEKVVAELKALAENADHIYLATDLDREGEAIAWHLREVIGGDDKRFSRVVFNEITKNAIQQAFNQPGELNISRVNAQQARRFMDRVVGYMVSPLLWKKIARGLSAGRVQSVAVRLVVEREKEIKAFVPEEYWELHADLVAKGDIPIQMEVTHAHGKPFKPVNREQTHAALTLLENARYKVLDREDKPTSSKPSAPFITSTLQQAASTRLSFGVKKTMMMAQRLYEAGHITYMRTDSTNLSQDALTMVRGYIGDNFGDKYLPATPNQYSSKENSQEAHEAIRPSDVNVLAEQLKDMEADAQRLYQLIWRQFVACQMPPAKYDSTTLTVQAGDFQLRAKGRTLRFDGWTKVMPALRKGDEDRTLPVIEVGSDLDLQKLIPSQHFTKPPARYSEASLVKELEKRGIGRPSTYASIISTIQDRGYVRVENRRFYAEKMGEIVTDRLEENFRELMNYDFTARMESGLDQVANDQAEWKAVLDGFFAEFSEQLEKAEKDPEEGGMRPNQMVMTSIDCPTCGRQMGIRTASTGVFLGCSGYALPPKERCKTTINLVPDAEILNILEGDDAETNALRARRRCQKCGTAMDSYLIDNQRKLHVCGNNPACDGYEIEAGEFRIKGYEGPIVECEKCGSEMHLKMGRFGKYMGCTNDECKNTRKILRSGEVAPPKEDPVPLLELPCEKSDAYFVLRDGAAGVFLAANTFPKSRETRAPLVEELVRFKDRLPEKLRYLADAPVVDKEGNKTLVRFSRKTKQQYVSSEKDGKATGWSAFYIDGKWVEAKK

[10] = target: Glycogen synthase kinase-3 alpha (Homo sapiens, UniProt P49840); assay: Inhibition of Human GSK-3 alpha Activity Measured in Biochemical System Using Microfluidics - 2063-06_Inhibitor_Dose_DryPowder_Activity_Set2. [Related pubchem assays (depositor defined):AID2709]
[11] = target: Glycogen synthase kinase-3 beta (Homo sapiens, UniProt P49841); assay: Inhibition of Human GSK-3 beta Activity Measured in Biochemical System Using Microfluidics - 2063-05_Inhibitor_Dose_DryPowder_Activity_Set2. [Related pubchem assays (depositor defined):AID2709]
Sequence of Glycogen synthase kinase-3 beta (P49841 whole entry): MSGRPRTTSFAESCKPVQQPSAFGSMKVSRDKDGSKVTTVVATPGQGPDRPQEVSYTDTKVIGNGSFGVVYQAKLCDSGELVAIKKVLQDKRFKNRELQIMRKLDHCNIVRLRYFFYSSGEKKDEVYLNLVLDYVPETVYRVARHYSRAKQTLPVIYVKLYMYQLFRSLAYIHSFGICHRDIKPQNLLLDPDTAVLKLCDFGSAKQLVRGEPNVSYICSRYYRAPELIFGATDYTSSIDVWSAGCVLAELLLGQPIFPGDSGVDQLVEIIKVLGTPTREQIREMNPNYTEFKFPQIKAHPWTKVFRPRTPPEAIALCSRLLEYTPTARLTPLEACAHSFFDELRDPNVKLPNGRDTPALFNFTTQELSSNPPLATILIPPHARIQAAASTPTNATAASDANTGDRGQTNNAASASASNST

[12] = target: Cyclin-dependent kinase 5/CDK5 activator 1 (Homo sapiens, UniProt Q00535); assay: CDK5-p25 kinase inhibitors, specificity check, dose response, selectivity assay for GSK-3 alpha inhibitor project, biochemical, microfluidic mobility shift, dry powder (AID 588430)
Sequence of Cyclin-dependent kinase 5/CDK5 activator 1 (Q00535 whole entry, the tested form may be a part): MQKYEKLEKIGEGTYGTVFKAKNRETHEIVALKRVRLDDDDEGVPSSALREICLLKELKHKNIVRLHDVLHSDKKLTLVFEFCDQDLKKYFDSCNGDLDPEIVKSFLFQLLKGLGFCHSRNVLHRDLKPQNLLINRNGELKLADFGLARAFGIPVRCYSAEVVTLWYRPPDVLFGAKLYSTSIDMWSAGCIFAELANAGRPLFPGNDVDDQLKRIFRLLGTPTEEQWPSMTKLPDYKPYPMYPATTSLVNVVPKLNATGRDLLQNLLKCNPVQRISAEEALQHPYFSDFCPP
Sequence of Cyclin-dependent kinase 5/CDK5 activator 1 (Q15078 whole entry, further chain, the tested form may be a part): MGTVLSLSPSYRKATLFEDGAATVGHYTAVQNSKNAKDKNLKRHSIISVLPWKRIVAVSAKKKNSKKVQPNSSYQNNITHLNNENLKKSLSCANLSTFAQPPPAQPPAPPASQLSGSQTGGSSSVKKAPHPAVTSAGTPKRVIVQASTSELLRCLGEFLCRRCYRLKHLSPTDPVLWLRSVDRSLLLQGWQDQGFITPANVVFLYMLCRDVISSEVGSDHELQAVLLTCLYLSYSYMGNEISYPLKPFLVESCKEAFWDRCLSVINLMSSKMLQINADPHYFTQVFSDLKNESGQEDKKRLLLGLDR

[13] = system: CHO; assay: cytotoxicity in TLR9-MyD88 CHO cells, dose response, cytotoxicity control for TLR9-MyD88 binding inhibitor project, cell-based, luminescence (AID 588339); type: functional, hamster; details: Cricetulus griseus;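 also: CHO cells stably coexpressing TLR9 and MyD88 fusions from primary screen; compound exposure lasted 48 hours before viability readout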
[14] = target: T3, Endoribonuclease toxin MazF (Escherichia coli K-12, UniProt P0AE70); assay: MazF toxin RNase activators, dose response, biochemical, fluorescence, single-stranded RNA substrate, uHTS hits (AID 588481); type: functional
T3 sequence (P0AE70 whole entry): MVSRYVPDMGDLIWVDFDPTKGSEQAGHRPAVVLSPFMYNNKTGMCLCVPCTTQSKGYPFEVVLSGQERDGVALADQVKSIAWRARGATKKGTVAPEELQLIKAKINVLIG

[15] = target: Beta Lactamase (Pseudomonas aeruginosa, UniProt Q932Y6); assay: beta-lactamase reporter inhibitor potency, dose response, artefact control for TLR9-MyD88 binding inhibitor project, BLA reporter cells, FRET fluorescence (AID 588341); type: cell-based;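 also: cell based assay in CHO-K1 cells stably expressing beta-lactamase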
Sequence of Beta Lactamase (Q932Y6 whole entry): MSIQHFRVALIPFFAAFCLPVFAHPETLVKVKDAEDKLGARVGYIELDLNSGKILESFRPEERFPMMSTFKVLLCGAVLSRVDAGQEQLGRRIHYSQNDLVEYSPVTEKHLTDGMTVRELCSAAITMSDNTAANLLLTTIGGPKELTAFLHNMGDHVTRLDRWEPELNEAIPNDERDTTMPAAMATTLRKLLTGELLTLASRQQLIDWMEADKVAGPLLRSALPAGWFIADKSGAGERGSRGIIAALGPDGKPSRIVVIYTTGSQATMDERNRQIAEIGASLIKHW

[16] = target: T3, Endoribonuclease toxin MazF; assay: fluorescent RNA oligo signal without MazF, dose response, counter-screen for MazEF activator project, biochemical, fluorescence, single-stranded RNase substrate (AID 588502); type: functional

Sequence of Voltage-dependent T-type calcium channel subunit alpha-1H (O95180 whole entry): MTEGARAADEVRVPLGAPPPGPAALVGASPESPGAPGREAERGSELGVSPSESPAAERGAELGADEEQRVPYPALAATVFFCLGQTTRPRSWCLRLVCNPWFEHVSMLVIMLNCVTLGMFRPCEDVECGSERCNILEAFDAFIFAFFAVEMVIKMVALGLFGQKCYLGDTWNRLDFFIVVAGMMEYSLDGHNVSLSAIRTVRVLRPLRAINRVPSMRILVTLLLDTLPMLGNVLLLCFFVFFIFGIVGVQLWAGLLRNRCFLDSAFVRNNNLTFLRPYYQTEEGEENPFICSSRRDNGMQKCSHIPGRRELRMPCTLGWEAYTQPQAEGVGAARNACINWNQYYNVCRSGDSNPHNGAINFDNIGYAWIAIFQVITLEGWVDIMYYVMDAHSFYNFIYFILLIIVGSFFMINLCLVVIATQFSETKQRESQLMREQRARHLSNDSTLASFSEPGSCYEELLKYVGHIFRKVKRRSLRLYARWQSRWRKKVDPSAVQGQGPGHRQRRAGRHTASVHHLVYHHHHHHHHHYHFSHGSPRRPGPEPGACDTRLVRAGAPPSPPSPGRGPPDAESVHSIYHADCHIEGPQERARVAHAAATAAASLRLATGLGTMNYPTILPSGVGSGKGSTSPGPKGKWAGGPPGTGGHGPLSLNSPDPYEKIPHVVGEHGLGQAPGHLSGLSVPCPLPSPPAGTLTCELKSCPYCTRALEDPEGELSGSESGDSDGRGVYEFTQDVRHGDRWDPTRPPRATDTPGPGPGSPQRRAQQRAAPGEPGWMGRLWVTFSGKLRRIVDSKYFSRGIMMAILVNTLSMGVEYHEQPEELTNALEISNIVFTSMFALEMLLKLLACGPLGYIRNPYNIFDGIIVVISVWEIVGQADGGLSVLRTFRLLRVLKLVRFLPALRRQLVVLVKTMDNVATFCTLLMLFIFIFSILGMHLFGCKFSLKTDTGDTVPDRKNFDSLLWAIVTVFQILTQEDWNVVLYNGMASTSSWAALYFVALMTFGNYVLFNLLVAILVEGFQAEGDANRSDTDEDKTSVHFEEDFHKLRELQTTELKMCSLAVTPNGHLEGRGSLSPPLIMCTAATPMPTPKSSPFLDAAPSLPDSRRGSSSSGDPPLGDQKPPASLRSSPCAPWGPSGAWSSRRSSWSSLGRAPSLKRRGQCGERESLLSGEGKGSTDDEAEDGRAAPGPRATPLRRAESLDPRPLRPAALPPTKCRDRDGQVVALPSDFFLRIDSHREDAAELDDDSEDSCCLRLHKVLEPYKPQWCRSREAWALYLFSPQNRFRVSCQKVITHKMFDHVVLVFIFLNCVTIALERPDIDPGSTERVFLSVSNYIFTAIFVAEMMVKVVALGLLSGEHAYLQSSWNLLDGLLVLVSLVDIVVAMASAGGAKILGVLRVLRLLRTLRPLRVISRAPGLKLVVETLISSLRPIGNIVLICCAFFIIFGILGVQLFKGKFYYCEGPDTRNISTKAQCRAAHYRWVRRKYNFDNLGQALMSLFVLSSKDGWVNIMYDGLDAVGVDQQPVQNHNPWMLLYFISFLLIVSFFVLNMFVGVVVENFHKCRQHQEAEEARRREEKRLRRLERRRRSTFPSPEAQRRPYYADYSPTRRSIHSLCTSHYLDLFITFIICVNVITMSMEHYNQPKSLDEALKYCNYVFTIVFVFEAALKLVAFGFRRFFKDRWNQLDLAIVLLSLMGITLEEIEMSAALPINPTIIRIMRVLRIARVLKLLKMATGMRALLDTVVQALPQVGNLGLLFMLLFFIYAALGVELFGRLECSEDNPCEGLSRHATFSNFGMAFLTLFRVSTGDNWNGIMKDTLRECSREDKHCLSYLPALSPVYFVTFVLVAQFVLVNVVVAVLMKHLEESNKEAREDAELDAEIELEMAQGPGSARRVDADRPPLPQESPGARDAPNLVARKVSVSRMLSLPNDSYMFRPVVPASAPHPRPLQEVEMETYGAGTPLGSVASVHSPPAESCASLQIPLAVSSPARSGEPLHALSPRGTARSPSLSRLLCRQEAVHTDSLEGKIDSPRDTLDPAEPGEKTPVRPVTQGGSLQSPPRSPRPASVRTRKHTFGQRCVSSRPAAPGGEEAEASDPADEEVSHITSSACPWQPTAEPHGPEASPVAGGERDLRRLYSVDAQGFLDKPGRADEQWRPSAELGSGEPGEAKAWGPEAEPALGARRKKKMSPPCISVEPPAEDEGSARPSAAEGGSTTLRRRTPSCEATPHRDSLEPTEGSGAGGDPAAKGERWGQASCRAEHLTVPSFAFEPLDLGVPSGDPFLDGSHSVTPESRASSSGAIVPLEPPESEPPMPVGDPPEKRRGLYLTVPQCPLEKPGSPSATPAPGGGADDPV

Q: Which EC50 [1] does the source give for `CCN(CC)CCn1c(NCc2nc3ccccc3n2Cc2ccccc2)nc2ccccc21` here?
A: 4.94 µM (active)

Q: What about the EC50 [2] of the same compound?
A: 11.4 µM (active)

Q: Which results are given for `CNc1nc(SCc2ccccc2Cl)nc2c1CCCC2`?
A: CC50 [3]: 9.68 µM (active); AC50 [4]: 8.66 µM (active); EC50 [5]: 4.73 µM (active); CC50 [6]: 49.2 µM (active); CC50 [7]: 25.6 µM (active); CC50 [8]: 36.2 µM (active)

Q: With `Cc1ccc(S(=O)(=O)N=C(N)Nc2nc(C)c3cc(C)ccc3n2)cc1` as the compound, how does the AC50 [9] read?
A: 14.2 µM (active)

Q: For `COc1cc(/C=N/Nc2ccc([N+](=O)[O-])cn2)cc(OC)c1O`, which AC50 [10] is on record?
A: 0.367 µM (active)

Q: What about the AC50 [11] of the same compound?
A: 0.095 µM (active)

Q: And the AC50 [12]?
A: 1.55 µM (active)

Q: Which IC50 [13] does the source give for `COc1ccc(OC)c(/C=C/c2nc3ccccc3nc2O)c1` here?
A: 28.4 µM (inactive)

Q: What about the EC50 [14] of the same compound?
A: > 99 µM (inactive)

Q: What about the IC50 [15] of the same compound?
A: 8.5 µM (active)

Q: And the EC50 [16]?
A: > 99 µM (inactive)
